What was measured:
Test in all cases: Ambit KinomeScan screening
Format in all cases: binding
Details in all cases: CAL-130 10 μM
FYN = target: T1, FYN (Homo sapiens, UniProt P06241)
T1 construct: unspecified tag ('tagged kinases'); purchased Ambit (KinomeScan screening service)
Outline: (§1)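 Read-out is % of control binding: the tagged kinase retained on an immobilized bait ligand when CAL-130 is present at 10 μM. A lower percentage reflects stronger compound interaction, and anything over 35% counts as no hit.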

CDK8 = target: T2, CDK8 (Homo sapiens, UniProt P49336)
T2 construct: purchased Ambit (KinomeScan screening service)
Outline: as §1

MELK = target: T3, MELK (Homo sapiens, UniProt Q14680)
T3 construct: purchased Ambit (KinomeScan screening)
Outline: as §1

ABL2 = target: T4, ABL2 (Homo sapiens, UniProt P42684)
T4 construct: unspecified tag ("tagged kinases"); purchased Ambit (KinomeScan screening)
Outline: as §1

MKNK2 = target: T5, MKNK2 (Homo sapiens, UniProt Q9HBH9)
T5 construct: unspecified tag ('tagged kinases'); purchased Ambit (KinomeScan screening)
Outline: as §1

CSNK2A2 = target: T6, CSNK2A2 (Homo sapiens, UniProt P19784)
T6 construct: purchased Ambit (KinomeScan screening service)
Outline: as §1

JAK3(JH1domain) = target: T7, JAK3(JH1domain) (Homo sapiens, UniProt P52333)
T7 construct: JAK3(JH1domain); purchased Ambit (KinomeScan screening)
Outline: as §1

ANKK1 = target: T8, ANKK1 (Homo sapiens, UniProt Q8NFD2)
T8 construct: purchased Ambit (KinomeScan screening)
Outline: as §1

EPHB2 = target: T9, EPHB2 (Homo sapiens, UniProt P29323)
T9 construct: purchased Ambit (KinomeScan screening service)
Outline: as §1

ULK2 = target: T10, ULK2 (Homo sapiens, UniProt Q8IYT8)
T10 construct: tag, kind not specified; purchased Ambit (KinomeScan screening service)
Outline: as §1

MAP3K2 = target: T11, MAP3K2 (Homo sapiens, UniProt Q9Y2U5)
T11 construct: Ambit (KinomeScan screening)
Outline: as §1

JNK1 = target: T12, JNK1 (Homo sapiens, UniProt P45983)
T12 construct: purchased Ambit (KinomeScan screening)
Outline: as §1

EGFR(E746-A750DEL) = target: T13, EGFR(E746-A750DEL) (Homo sapiens, UniProt P00533, DEL746-750)
T13 construct: unspecified tag; purchased Ambit (KinomeScan screening service)
Outline: as §1

ERK8 = target: T14, ERK8 (Homo sapiens, UniProt Q8TD08)
T14 construct: unspecified tag ("tagged kinases"); purchased Ambit (KinomeScan screening service)
Outline: as §1

LIMK2 = target: T15, LIMK2 (Homo sapiens, UniProt P53671)
T15 construct: unspecified tag ('tagged kinases'); purchased Ambit (KinomeScan screening service)
Outline: as §1

FLT3(ITD) = tested on: FLT3(ITD)
Outline: as §1

AURKB = target: T16, AURKB (Homo sapiens, UniProt Q96GD4)
T16 construct: purchased Ambit (KinomeScan screening service)
Outline: as §1

CDK7 = target: T17, CDK7 (Homo sapiens, UniProt P50613)
T17 construct: purchased Ambit (KinomeScan screening)
Outline: as §1

PIK3CA = target: T18, PIK3CA (Homo sapiens, UniProt P42336)
T18 construct: unspecified tag; purchased Ambit (KinomeScan screening panel)
Outline: as §1

RIOK3 = target: T19, RIOK3 (Homo sapiens, UniProt O14730)
T19 construct: unspecified tag (tagged kinase); purchased Ambit (KinomeScan screening)
Outline: as §1

JAK2(JH1domain) = target: T20, JAK2(JH1domain) (Homo sapiens, UniProt O60674)
T20 construct: JAK2(JH1domain); purchased Ambit (KinomeScan screening)
Outline: as §1

CDK11 = target: T21, CDK11 (Homo sapiens, UniProt Q9BWU1)
T21 construct: purchased Ambit (KinomeScan screening)
Outline: as §1

MST1 = target: T22, MST1 (Homo sapiens, UniProt Q13043)
T22 construct: unspecified tag ('tagged kinases'); purchased Ambit (KinomeScan screening)
Outline: as §1

p38-γ = target: T23, p38-γ (Homo sapiens, UniProt P53778)
T23 construct: purchased Ambit (KinomeScan screening service)
Outline: as §1

ABL1(Q252H) = target: T24, ABL1(Q252H) (Homo sapiens, UniProt P00519, Q252H)
T24 construct: unspecified tag ("tagged kinases"); purchased Ambit (KinomeScan screening)
Outline: as §1

TRKA = target: T25, TRKA (Homo sapiens, UniProt P04629)
T25 construct: unspecified tag (tagged kinase); purchased Ambit (KinomeScan screening)
Outline: as §1

EPHA3 = target: T26, EPHA3 (Homo sapiens, UniProt P29320)
T26 construct: purchased Ambit (KinomeScan screening service)
Outline: as §1

FGFR3 = target: T27, FGFR3 (Homo sapiens, UniProt P22607)
T27 construct: unspecified tag; purchased Ambit (KinomeScan screening service)
Outline: as §1

PDGFRA = target: T28, PDGFRA (Homo sapiens, UniProt P16234)
T28 construct: unspecified tag ('tagged kinases'); purchased Ambit (KinomeScan screening)
Outline: as §1

FGFR3(G697C) = target: T29, FGFR3(G697C) (Homo sapiens, UniProt P22607, G697C)
T29 construct: unspecified tag; purchased Ambit (KinomeScan screening service)
Outline: as §1

HIPK1 = target: T30, HIPK1 (Homo sapiens, UniProt Q86Z02)
T30 construct: unspecified tag ('tagged kinases'); purchased Ambit (KinomeScan screening service)
Outline: as §1

BRK = target: T31, BRK (Homo sapiens, UniProt Q13882)
T31 construct: unspecified tag ("tagged kinases"); purchased Ambit (KinomeScan screening)
Outline: as §1

MAPKAPK2 = target: T32, MAPKAPK2 (Homo sapiens, UniProt P49137)
T32 construct: Ambit (KinomeScan screening)
Outline: as §1

NEK2 = target: T33, NEK2 (Homo sapiens, UniProt P51955)
T33 construct: unspecified tag; purchased Ambit (KinomeScan screening panel)
Outline: as §1

FLT3(K663Q) = target: T34, FLT3(K663Q) (Homo sapiens, UniProt P36888, K663Q)
T34 construct: unspecified tag; purchased Ambit (KinomeScan screening service)
Outline: as §1

T18 sequence (P42336 whole entry): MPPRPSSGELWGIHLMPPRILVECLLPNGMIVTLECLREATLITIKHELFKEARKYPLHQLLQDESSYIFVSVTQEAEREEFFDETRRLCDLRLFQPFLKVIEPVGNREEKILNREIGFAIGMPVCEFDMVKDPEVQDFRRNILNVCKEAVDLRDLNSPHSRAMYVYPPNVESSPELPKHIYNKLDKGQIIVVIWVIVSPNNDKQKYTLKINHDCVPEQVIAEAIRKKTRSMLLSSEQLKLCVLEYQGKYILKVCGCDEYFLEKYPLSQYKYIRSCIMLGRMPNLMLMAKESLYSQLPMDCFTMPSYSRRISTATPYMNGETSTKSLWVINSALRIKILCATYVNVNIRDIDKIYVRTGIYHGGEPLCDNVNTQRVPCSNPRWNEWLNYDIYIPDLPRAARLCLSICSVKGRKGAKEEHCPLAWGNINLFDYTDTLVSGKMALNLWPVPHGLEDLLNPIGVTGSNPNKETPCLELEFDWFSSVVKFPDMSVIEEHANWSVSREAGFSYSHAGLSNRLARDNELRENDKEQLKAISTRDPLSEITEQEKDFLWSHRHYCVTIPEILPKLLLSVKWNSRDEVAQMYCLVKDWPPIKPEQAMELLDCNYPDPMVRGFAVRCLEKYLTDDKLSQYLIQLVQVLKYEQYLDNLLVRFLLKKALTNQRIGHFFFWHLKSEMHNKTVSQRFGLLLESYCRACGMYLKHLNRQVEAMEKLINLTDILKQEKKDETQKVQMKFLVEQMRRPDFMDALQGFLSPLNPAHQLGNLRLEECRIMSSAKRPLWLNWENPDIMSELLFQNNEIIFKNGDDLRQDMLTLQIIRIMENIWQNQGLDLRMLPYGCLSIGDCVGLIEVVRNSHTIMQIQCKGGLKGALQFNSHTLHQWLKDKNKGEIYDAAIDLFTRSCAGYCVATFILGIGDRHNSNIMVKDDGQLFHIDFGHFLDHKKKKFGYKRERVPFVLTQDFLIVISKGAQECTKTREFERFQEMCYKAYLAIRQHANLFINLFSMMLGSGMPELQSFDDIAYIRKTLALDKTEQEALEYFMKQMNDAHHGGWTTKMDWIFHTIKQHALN
T4 sequence (P42684 whole entry): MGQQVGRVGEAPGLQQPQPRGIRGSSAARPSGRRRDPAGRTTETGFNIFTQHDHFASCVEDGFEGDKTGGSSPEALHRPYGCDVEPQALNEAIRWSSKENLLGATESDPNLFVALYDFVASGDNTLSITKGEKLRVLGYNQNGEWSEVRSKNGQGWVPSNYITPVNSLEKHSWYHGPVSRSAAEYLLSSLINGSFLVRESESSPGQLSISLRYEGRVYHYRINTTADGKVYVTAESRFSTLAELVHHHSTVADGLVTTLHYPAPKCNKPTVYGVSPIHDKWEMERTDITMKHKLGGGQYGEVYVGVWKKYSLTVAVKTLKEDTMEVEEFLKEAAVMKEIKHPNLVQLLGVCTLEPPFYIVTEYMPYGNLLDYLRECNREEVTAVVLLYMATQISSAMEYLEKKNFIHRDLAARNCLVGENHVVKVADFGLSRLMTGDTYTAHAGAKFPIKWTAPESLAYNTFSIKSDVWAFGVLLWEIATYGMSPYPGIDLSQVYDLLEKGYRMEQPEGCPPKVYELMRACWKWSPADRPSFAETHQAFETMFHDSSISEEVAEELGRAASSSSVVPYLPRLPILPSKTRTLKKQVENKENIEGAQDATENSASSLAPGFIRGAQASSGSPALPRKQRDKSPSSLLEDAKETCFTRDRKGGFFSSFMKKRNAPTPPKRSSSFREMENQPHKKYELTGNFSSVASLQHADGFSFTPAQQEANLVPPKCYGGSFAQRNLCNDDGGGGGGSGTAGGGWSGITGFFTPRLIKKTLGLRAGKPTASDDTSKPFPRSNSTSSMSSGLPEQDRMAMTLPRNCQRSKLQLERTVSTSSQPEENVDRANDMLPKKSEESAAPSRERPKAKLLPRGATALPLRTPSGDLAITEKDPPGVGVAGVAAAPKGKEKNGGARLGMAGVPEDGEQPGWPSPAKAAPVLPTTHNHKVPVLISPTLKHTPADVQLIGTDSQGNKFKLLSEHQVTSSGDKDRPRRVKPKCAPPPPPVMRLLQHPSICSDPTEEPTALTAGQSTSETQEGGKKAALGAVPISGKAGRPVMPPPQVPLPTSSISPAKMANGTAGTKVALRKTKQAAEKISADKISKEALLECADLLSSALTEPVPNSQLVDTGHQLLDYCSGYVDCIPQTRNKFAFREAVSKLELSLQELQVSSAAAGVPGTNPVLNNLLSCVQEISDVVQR
T9 sequence (P29323 19-1055): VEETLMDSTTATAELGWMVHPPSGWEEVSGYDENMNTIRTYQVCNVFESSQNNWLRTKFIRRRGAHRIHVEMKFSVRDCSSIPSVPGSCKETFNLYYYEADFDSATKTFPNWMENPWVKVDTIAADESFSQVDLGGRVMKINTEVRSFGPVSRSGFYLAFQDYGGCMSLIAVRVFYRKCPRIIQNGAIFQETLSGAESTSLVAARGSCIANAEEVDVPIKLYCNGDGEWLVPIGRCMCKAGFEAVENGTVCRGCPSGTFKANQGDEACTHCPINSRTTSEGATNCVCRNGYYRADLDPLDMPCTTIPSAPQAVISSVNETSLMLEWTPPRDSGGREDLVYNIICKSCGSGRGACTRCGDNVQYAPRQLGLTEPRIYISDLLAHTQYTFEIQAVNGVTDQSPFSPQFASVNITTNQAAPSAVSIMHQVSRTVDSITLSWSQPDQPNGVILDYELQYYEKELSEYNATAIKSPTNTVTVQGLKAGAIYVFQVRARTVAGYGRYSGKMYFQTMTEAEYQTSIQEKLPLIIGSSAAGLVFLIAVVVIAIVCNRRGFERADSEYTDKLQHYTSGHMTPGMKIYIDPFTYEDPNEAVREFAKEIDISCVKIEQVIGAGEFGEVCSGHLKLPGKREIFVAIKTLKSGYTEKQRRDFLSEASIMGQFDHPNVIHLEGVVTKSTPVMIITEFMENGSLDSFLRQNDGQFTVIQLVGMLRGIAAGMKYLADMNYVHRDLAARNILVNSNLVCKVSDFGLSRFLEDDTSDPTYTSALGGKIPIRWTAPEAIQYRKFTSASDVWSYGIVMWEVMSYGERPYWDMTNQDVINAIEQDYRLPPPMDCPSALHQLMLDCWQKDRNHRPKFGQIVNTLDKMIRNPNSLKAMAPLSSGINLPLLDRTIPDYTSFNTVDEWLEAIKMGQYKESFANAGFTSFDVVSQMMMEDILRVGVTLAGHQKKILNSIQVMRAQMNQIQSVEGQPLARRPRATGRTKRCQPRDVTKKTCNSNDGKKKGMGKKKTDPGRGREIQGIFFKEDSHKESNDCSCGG
T20 sequence (O60674 849-1124 limits assumed): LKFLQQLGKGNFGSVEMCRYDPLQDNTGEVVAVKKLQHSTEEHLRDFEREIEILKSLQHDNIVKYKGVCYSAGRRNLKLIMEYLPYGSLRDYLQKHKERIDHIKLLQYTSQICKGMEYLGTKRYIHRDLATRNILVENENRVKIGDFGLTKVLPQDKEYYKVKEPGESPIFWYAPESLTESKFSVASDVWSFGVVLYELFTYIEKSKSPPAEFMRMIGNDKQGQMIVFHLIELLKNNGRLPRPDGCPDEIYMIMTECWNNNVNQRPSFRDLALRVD
T21 sequence (Q9BWU1 whole entry): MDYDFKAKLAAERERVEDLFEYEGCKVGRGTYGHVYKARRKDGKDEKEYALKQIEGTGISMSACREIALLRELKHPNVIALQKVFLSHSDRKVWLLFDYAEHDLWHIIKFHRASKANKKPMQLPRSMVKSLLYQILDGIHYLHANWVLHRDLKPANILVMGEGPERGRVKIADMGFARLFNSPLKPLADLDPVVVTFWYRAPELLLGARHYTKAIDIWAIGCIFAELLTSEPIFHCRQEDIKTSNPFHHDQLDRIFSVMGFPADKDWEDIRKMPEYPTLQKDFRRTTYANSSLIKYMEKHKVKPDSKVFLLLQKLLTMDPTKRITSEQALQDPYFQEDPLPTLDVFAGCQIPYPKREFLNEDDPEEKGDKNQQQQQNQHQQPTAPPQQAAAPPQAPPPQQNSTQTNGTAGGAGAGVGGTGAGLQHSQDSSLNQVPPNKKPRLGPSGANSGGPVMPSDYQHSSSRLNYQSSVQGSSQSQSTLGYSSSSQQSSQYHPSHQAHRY
T33 sequence (P51955 whole entry): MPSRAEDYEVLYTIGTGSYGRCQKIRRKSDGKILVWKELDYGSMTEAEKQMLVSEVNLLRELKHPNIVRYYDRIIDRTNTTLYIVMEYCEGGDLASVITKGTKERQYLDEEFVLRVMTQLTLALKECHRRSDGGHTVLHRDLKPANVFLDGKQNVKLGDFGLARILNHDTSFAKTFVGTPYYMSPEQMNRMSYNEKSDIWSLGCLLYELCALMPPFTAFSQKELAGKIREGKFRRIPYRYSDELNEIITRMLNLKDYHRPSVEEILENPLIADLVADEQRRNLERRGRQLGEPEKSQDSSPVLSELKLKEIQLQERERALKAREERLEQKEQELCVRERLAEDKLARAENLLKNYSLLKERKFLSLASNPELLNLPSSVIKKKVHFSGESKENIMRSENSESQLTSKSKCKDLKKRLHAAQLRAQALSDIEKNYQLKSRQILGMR
T6 sequence (P19784 whole entry): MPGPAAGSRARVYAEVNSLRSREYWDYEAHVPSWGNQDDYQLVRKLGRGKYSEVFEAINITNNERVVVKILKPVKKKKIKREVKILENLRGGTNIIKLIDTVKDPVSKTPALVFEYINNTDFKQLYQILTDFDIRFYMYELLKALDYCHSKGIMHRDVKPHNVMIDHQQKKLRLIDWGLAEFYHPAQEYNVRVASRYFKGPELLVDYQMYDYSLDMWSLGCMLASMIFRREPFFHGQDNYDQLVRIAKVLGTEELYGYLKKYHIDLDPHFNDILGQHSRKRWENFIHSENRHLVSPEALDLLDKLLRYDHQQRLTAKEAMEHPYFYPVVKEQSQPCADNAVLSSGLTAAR

Cc1ccccc1-n1c(C(C)Nc2nc(N)nc3nc[nH]c23)nc2cccc(C)c2c1=O (stereo not drawn) [CAL-130]
Percent of Control Binding (FYN): 100%
Percent of Control Binding (CDK8): 100%
Percent of Control Binding (MELK): 100%
Percent of Control Binding (ABL2): 100%
Percent of Control Binding (MKNK2): 16%
Percent of Control Binding (CSNK2A2): 100%
Percent of Control Binding (JAK3(JH1domain)): 100%
Percent of Control Binding (ANKK1): 100%
Percent of Control Binding (EPHB2): 100%
Percent of Control Binding (ULK2): 100%
Percent of Control Binding (MAP3K2): 100%
Percent of Control Binding (JNK1): 100%
Percent of Control Binding (EGFR(E746-A750DEL)): 100%
Percent of Control Binding (ERK8): 100%
Percent of Control Binding (LIMK2): 100%
Percent of Control Binding (FLT3(ITD)): 100%
Percent of Control Binding (AURKB): 100%
Percent of Control Binding (CDK7): 100%
Percent of Control Binding (PIK3CA; PI3KCA (Table 2)): 12%
Percent of Control Binding (PIK3CA; PIK3CA (Table 1)): 12%
Percent of Control Binding (RIOK3): 100%
Percent of Control Binding (JAK2(JH1domain)): 100%
Percent of Control Binding (CDK11): 100%
Percent of Control Binding (MST1): 100%
Percent of Control Binding (p38-γ): 100%
Percent of Control Binding (ABL1(Q252H)): 100%
Percent of Control Binding (TRKA): 100%
Percent of Control Binding (EPHA3): 100%
Percent of Control Binding (FGFR3): 100%
Percent of Control Binding (PDGFRA): 100%
Percent of Control Binding (FGFR3(G697C)): 100%
Percent of Control Binding (HIPK1): 100%
Percent of Control Binding (BRK): 100%
Percent of Control Binding (MAPKAPK2): 100%
Percent of Control Binding (NEK2): 100%
Percent of Control Binding (FLT3(K663Q)): 100%

Source: US11969428B2, “Methods and pharmaceutical compositions for treating lymphoid malignancy” (priority 2011, dated 2024)
